US8642510B2, “Inhibitors for brassinosteroid signalling” (GMI-Gregor Mendel-Institut fuer Molekulare Pflanzenbiologie …, priority 2008, dated 2014)
Entries after “also recorded” stand apart in the source; their conditions may differ.

Assays:
[1] = test system: ASKs (A. thaliana GSK-3/Shaggy-like kinases); assay: In vitro kinase assay, GST-ASK fusion proteins with MBP and γ-[32P]-ATP; type: biochemical, Arabidopsis thaliana; details: compounds at 10 μM, result in words
Protocol: GST-ASK fusion proteins were incubated with MBP as substrate and γ-[32P]-ATP as co-substrate in the absence (−) or presence of different derivatives (the numbers correspond to Table 1). […] The compounds were used at a concentration of 10 μM. The proteins were separated by SDS-PAGE and the incorporated radioactive phosphate detected with a storage phosphor imager screen.
(§1) ASKs were expressed as GST-fusion proteins in E. coli BL21. In vitro kinase assays were performed by incubating 50 ng GST-fusion protein, 10 μg myelin basic protein (MBP; Sigma, St Louis, Mo.) as substrate and 0.15 MBq γ-[32P]-ATP as co-substrate at 25° C. for 30 min. The reaction buffer consisted of 20 mM HEPES pH7.4, 15 mM MgCl2, 5 mM EGTA and 1 mM DTT. For initial experiments cold ATP was included at concentrations up to 3 μM. The reaction products were separated by SDS-PAGE and the amount of radioactivity incorporated into MBP quantified using an Amersham storage phosphor imager screen and a Biorad Molecular Imager FX. In vivo kinase activity was detected by phosphorylation band-shift assays using BZR1-CFP as substrate.
Representatives of all groups were expressed as recombinant GST fusion proteins in E. coli.

ASKθ = molecular target: T1, ASKθ (Arabidopsis thaliana, UniProt Q96287); details: prior knowledge; cited from earlier work
T1 construct: made in house; host or cells: E. coli BL21
T1 sequence (Q96287 1-472): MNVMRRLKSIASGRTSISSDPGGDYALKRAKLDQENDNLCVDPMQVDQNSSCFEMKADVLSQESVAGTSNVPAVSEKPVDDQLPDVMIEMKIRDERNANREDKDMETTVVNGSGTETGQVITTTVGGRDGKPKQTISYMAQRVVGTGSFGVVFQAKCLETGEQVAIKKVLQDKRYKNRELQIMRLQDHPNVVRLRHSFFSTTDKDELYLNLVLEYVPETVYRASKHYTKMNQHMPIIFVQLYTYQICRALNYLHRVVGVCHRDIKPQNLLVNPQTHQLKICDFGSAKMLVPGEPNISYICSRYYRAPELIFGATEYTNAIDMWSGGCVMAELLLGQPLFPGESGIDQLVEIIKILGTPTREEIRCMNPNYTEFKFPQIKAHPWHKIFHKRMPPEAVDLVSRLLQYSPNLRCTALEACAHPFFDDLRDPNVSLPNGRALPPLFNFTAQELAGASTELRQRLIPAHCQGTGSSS

ASKβ = molecular target: T2, ASKβ (Arabidopsis thaliana, UniProt O23145); details: prior knowledge; cited from earlier work
T2 construct: made in house; host or cells: E. coli BL21
T2 sequence (O23145 1-431): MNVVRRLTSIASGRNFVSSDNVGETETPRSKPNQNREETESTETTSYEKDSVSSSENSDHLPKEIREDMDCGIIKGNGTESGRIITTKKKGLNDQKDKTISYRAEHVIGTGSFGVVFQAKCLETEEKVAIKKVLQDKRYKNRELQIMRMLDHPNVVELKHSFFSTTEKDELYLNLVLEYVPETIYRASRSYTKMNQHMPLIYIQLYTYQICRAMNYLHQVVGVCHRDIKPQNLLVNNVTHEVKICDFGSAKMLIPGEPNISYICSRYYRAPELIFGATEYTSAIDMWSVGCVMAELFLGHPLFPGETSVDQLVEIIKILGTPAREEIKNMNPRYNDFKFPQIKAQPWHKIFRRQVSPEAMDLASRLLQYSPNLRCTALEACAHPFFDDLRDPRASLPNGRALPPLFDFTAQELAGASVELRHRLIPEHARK

ASKδ = molecular target: T3, ASKδ (Arabidopsis thaliana, UniProt Q9FVS6); details: prior knowledge; listed as 4-[(5-bromo-2-pyridinyl)amino]-4-oxobutanoic acid; cited from earlier work
T3 construct: made in house; host or cells: E. coli BL21
T3 sequence (Q9FVS6 1-420): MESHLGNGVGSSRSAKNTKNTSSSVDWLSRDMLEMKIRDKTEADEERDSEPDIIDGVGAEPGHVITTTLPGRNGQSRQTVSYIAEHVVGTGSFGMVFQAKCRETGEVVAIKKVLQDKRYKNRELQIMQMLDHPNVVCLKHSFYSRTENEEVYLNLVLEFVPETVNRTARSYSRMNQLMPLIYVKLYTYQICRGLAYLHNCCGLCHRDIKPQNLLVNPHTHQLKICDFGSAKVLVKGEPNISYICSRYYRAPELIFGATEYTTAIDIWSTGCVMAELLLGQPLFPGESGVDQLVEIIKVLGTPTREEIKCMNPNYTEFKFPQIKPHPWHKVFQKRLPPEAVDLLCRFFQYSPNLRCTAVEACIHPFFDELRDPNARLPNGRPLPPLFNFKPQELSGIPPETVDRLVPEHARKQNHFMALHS

cpd mutant seedlings = details: background statement; cited from earlier work
bri1-1 mutant seedlings = details: background statement; cited from earlier work
[2] = test system: group I and group II ASKs; details: group I: ASKα, ASKγ, ASKε; group II: BIN2, ASKζ, ASKι; prior knowledge; listed as 4-[(5-bromo-2-pyridinyl)amino]-4-oxobutanoic acid; cited from earlier work
[3] = Determination of pKa values; details: for pKa: 50% (v/v) methanol
Protocol: Fifty to 100 mg compound were weighed and dissolved in 50 ml 50% (v/v) methanol. A titration curve with 50 mM NaOH as standard solution was recorded with a Greisinger electonics GPHR 1400A pH meter. The equivalence point was determined by the difference quotient method (ΔpH/ΔVNaOH) and the pKa read from the titration curve at 50% neutralisation.

BIN2 = molecular target: T4, BIN2 (Arabidopsis thaliana, UniProt Q39011); assay: In vitro kinase assay, GST-BIN2; type: biochemical; details: compounds at 10 μM; result in words
T4 construct: made in house; host or cells: E. coli BL21
T4 sequence (Q39011 1-380): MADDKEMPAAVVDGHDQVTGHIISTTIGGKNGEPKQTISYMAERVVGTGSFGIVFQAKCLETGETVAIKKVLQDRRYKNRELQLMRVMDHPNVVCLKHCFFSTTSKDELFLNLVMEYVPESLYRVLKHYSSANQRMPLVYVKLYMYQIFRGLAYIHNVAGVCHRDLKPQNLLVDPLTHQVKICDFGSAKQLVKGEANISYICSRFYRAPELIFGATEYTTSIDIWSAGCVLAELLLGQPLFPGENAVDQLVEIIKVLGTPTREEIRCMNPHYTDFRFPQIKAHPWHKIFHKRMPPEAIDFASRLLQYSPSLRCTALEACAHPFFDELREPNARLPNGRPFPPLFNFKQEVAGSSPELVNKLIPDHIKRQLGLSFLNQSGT
Protocol: GST-BIN2 was incubated with MBP and γ-[32P]-ATP in the absence or presence of compounds 3, 14 and 15 at a concentration of 10 μM. The proteins were separated by SDS-PAGE and phosphorylation of MBP was quantified with a phospho imager screen. The residual activity is expressed in % of the control. The means and standard deviations were calculated from 4 independent assays.
as §1
The second kinase of this class, ASKβ, and the group IV kinase ASKδ are not inhibited. Representatives of all groups were expressed as recombinant GST fusion proteins in E. coli. […]

ASKζ = molecular target: T5, ASKζ (Arabidopsis thaliana, UniProt Q39010); assay: In vivo kinase assay, BZR1-CFP phosphorylation band-shift in protoplasts; type: cell-based, A. thaliana; details: protoplasts co-transformed with BZR1-CFP and Myc-tagged ASK; increasing concentrations
T5 construct: expressed in transfected cells; host or cells: A. thaliana protoplasts
T5 sequence (Q39010 1-412): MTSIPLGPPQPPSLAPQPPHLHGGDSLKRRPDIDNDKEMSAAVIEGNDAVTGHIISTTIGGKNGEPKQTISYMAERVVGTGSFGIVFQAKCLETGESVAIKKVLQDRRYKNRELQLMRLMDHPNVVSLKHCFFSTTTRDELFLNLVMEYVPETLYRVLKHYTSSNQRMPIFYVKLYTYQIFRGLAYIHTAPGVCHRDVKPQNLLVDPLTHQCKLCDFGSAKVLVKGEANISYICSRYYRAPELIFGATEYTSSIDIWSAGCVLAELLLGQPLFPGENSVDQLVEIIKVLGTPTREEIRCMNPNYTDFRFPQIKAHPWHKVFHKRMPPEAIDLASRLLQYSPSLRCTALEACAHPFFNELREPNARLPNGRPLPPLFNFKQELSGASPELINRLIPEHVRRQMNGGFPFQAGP
From the text: A. thaliana protoplasts were co-transformed with expression constructs of BZR1-CFP and Myc-tagged ASKζ and treated with increasing concentrations of compounds 10 and 15. […] and ASKζ-Myc were detected by western blot analysis using polyclonal anti-GFP and monoclonal anti-Myc antibodies, respectively. A Coomassie R250 stain is shown as a loading control. Depending on the ASKζ kinase activity BZR1-CFP can be observed in a phosphorylated or unphosphorylated form (indicated by arrows). The ratio of the two ASKζ-Myc bands, indicating posttranslational modification of this protein, were not affected by inhibitor application.
ASKs were expressed as GST-fusion proteins in E. coli BL21. […] The reaction products were separated by SDS-PAGE and the amount of radioactivity incorporated into MBP quantified using an Amersham storage phosphor imager screen and a Biorad Molecular Imager FX. In vivo kinase activity was detected by phosphorylation band-shift assays using BZR1-CFP as substrate.
Because of this unexpected result, the effect of the inhibitions on the in vivo ASK activity was analysed by a direct method. […] Transformed protoplasts were incubated with different concentrations of compounds 10 and 15 and BZR1-CFP and […] and subsequently analysed by western blotting.

SMILES | Inhibition of ASKs in vitro (MBP phosphorylation) [1] | Inhibition of ASKθ (group III) (ASKθ) | Inhibition of ASKβ (group III) (ASKβ) | Inhibition of ASKδ (group IV) (ASKδ) | Rescue of cpd mutant (cpd mutant seedlings) | Rescue of bri1-1 mutant (bri1-1 mutant seedlings) | Inhibition of group I and group II ASKs [2] | pKa [3] | Inhibition of ASKs in vitro (MBP phosphorylation) ([1]; listed as iodo derivative) | Inhibition of BIN2 in vitro (residual kinase activity) (BIN2) | Inhibition of in vivo ASK activity (BZR1-CFP phosphorylation shift) (ASKζ) | Portion undissociated ([3]; intracellular pH of 7.4) | Portion undissociated / lipophilic, capable of diffusion through the membrane ([3]; pH5.8, the pH of the medium) [%]
O=C(O)CCC(=O)Nc1ccc(Br)cn1 [Compound 14, 4-[(5-bromopyrid-2-yl)amino]-4-oxobutanoic acid] | highly active | moderately inhibited | not inhibited | not inhibited; also recorded: insensitive | rescues both mutants | rescues both mutants | potent inhibitor; also recorded: most sensitive | 5.6 |  |  |  |  | 
O=C(O)CCC(=O)Nc1ccc(I)cn1 [Compound 15, 4-[(5-iodopyrid-2-yl)amino]-4-oxobutanoic acid] | highest activity; also recorded: most potent compound in vitro |  |  |  |  |  |  | 5.8 | highly active | highest potency | potent inhibitors in vivo; also recorded: highly active; also recorded: high inhibitory activity in vivo | less than 3% | 50
CC(C)[C@@H](C)[C@@H](O)[C@H](O)[C@@H](C)[C@H]1CC[C@H]2[C@@H]3COC(=O)[C@H]4C[C@H](O)[C@H](O)C[C@]4(C)[C@H]3CC[C@]12C [epi-brassinolide] |  |  |  |  | rescues cpd | not bril-1 |  |  |  |  |  |  | 
